According to the supplement of paper PMC10307832:

Compound: O=C(CCCCCCC(=O)Nc1ccccc1)NO [Vorinostat] + CC1(C)CCC(c2ccc(Cl)cc2)=C(CN2CCN(c3ccc(C(=O)NS(=O)(=O)c4ccc(N[C@H](CCN5CCOCC5)CSc5ccccc5)c(S(=O)(=O)C(F)(F)F)c4)cc3)CC2)C1 [Navitoclax] (partner 0.5 µM)
Experiment: relative viability (nuclei count vs DMSO), 5 days (fraction); higher = more cells survive
In short: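 Five library-drug doses in √10 steps were combined with a fixed anchor-drug dose, or a single drug was given alone, by pin tool to lung cancer cell lines in 1536-well plates the day after seeding. Nuclei were stained and counted after 5 days. Relative viability is the nuclei count in treated wells over that in vehicle wells, taken as the median of duplicate plates.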

| Cell Line | relative viability (first compound 0.253 µM) | relative viability (first compound 0.8 µM) | relative viability (first compound 2.53 µM) | relative viability (first compound 8 µM) |
| --- | --- | --- | --- | --- |
| NCI-H1437 | 1.11 | 0.908 | 0.166 | 0.118 |
| HOP-62 | 0.969 | 0.779 | 0.215 | 0.0581 |
| LCLC-97TM1 | – | 0.298 | 0.289 | 0.0998 |
| NCI-H1975 | 1.23 | 0.839 | 0.308 | 0.146 |
| NCI-H520 | 1.17 | 0.845 | 0.256 | 0.162 |
| UMC-11 | 0.277 | 0.154 | 0.0896 | 0.0856 |
| NCI-H2347 | 0.933 | 0.714 | 0.238 | 0.16 |
| CAL-12T | 1.16 | 1.14 | 0.56 | 0.101 |
| COR-L23 | 1.13 | 0.503 | 0.0887 | 0.0849 |
| NCI-H2087 | 1.05 | 0.959 | 0.238 | 0.189 |
| NCI-H23 | 1.06 | 0.89 | 0.25 | 0.142 |
| SW 1573 | 1.12 | 0.891 | 0.349 | 0.0555 |
| NCI-H1703 | 1.46 | 1.47 | 0.888 | 0.161 |
| NCI-H2126 | 0.834 | 0.756 | 0.489 | 0.211 |
| SK-MES-1 | 1.51 | 1.18 | 0.494 | 0.162 |
| SK-LU-1 | 0.785 | 0.528 | 0.109 | 0.111 |
| LC-2-ad | 0.539 | 0.277 | 0.102 | 0.113 |

| Cell Line | relative viability (first compound 0.253 µM) | relative viability (first compound 0.8 µM) | relative viability (first compound 2.53 µM) | relative viability (first compound 8 µM) |
| --- | --- | --- | --- | --- |
| LU99A | 0.653 | 0.553 | 0.172 | 0.0974 |
| NCI-H1993 | 1 | 0.998 | 0.608 | 0.438 |
| NCI-H1944 | 1.07 | 0.945 | 0.731 | 0.226 |
| NCI-H1650 | 1.12 | 0.851 | 0.385 | 0.144 |
| PC-3 [JPC-3] | 0.655 | 0.676 | 0.398 | 0.247 |
| 201T | 1.24 | 1.25 | 1.2 | 0.472 |
| COR-L 105 | 0.741 | 0.58 | 0.257 | 0.234 |
| EMC-BAC-2 | 1.21 | 1.13 | 0.692 | 0.131 |
| NCI-H322M | 1.33 | 1.32 | 0.836 | 0.249 |
| HCC-15 | 0.82 | 0.594 | 0.324 | 0.0877 |
| BEN | 0.0469 | 0.0584 | 0.0602 | 0.0509 |
| NCI-H727 | 0.433 | 0.506 | 0.241 | 0.196 |
| NCI-H1793 | 0.534 | 0.521 | 0.186 | 0.118 |
| HCC-366 | 1.03 | 0.9 | 0.135 | 0.0208 |
| NCI-H2009 | 1.16 | 1.16 | 0.722 | 0.141 |
| ChaGo-K-1 | 1.01 | 0.92 | 0.582 | 0.276 |
